Reference: article PMC4319993 (Nature, 2014)

What was measured:
[1] = system: R. palustris LCC (RpLCC); test: coupled ATPase assay; type: biochemical, Rhodopseudomonas palustris; settings: 1.5 mM ATP, 40 mM KHCO3, 10 mM MgCl2, 200 mM KCl, 100 mM Hepes pH 7.5; 0.25 uM enzyme
[2] = target: Mycobacterium avium subspecies paratuberculosis long-chain acyl-CoA carboxylase (Mycobacterium avium subspecies paratuberculosis); test: crystal structure
[3] = target: Mycobacterium avium subspecies paratuberculosis long-chain acyl-CoA carboxylase (Mycobacterium avium subspecies paratuberculosis); test: SEC
[4] = target: Mycobacterium avium subspecies paratuberculosis long-chain acyl-CoA carboxylase (Mycobacterium avium subspecies paratuberculosis); test: crystal structure; remark: listed apart in the source
[5] = target: Rhodopseudomonas palustris long-chain acyl-CoA carboxylase (Rhodopseudomonas palustris); test: SEC

Compound	Km [1] [µM]	further results
CC(=O)SCCNC(=O)CCNC(=O)[C@H](O)C(C)(C)COP(=O)(O)OP(=O)(O)OC[C@H]1O[C@@H](n2cnc3c(N)ncnc32)[C@H](O)[C@@H]1OP(=O)(O)O [Acetyl-CoA]	2000 ± 300	–
CCCC(=O)SCCNC(=O)CCNC(=O)[C@H](O)C(C)(C)COP(=O)(O)OP(=O)(O)OC[C@H]1O[C@@H](n2cnc3c(N)ncnc32)[C@H](O)[C@@H]1OP(=O)(O)O [Butyryl-CoA]	820 ± 160	–
CCCCCCCCCC(=O)SCCNC(=O)CCNC(=O)[C@H](O)C(C)(C)COP(=O)(O)OP(=O)(O)OC[C@H]1O[C@@H](n2cnc3c(N)ncnc32)[C@H](O)[C@@H]1OP(=O)(O)O [Decanoyl-CoA]	33 ± 5	–
CCCCCC(=O)SCCNC(=O)CCNC(=O)[C@H](O)C(C)(C)COP(=O)(O)OP(=O)(O)OC[C@H]1O[C@@H](n2cnc3c(N)ncnc32)[C@H](O)[C@@H]1OP(=O)(O)O [Hexanoyl-CoA]	200 ± 40	–
CCCCCCCCCCCC(=O)SCCNC(=O)CCNC(=O)[C@H](O)C(C)(C)COP(=O)(O)OP(=O)(O)OC[C@H]1O[C@@H](n2cnc3c(N)ncnc32)[C@H](O)[C@@H]1OP(=O)(O)O [Lauroyl-CoA]	19 ± 3	–
CCCCCCCCCCCCCC(=O)SCCNC(=O)CCNC(=O)[C@H](O)C(C)(C)COP(=O)(O)OP(=O)(O)OC[C@H]1O[C@@H](n2cnc3c(N)ncnc32)[C@H](O)[C@@H]1OP(=O)(O)O [Myristoyl-CoA]	26 ± 2	–
CCCCCCCC(=O)SCCNC(=O)CCNC(=O)[C@H](O)C(C)(C)COP(=O)(O)OP(=O)(O)OC[C@H]1O[C@@H](n2cnc3c(N)ncnc32)[C@H](O)[C@@H]1OP(=O)(O)O [Octanoyl-CoA]	370 ± 60	–
CCCCCCCCCCCCCCCC(=O)SCCNC(=O)CCNC(=O)[C@H](O)C(C)(C)COP(=O)(O)OP(=O)(O)OC[C@H]1O[C@@H](n2cnc3c(N)ncnc32)[C@H](O)[C@@H]1OP(=O)(O)O [Palmitoyl-CoA]	5.8 ± 0.5	–
CCC(=O)SCCNC(=O)CCNC(=O)[C@H](O)C(C)(C)COP(=O)(O)OP(=O)(O)OC[C@H]1O[C@@H](n2cnc3c(N)ncnc32)[C@H](O)[C@@H]1OP(=O)(O)O [Propionyl-CoA]	2200 ± 500	–
Mycobacterium avium subspecies paratuberculosis long-chain acyl-CoA carboxylase (enzyme)	–	stoichiometry N [2]: 6; stoichiometry N [3]: 6; stoichiometry N [4]: 6
Rhodopseudomonas palustris long-chain acyl-CoA carboxylase (enzyme)	–	stoichiometry N [5]: 6
